Measured values reported in ChEMBL document CHEMBL1201862, “PubChem BioAssay data set” (2004).
Structures can show the parent of a compound that is named as a salt. Calls of active or inactive are those of the source.

How the values were obtained:
[1] = molecular target: Kallikrein-7 (Homo sapiens, UniProt P49862); test: Fluorescence Intensity-based biochemical primary high throughput dose response assay to identify activators of kallikrein-7 (K7) zymogen.
[2] = cytotoxicity in HEK-293T cells, dose response, cytotoxicity control for TCR NF-kB inhibitor project, luminescence, T-cell screen hits (AID 489026); format: functional, cell-based;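 also: cells exposed to compound about 14 hours before the viability readout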
[3] = molecular target: SWI/SNF-related matrix-associated actin-dependent regulator of chromatin subfamily A member 2 (Homo sapiens, UniProt P51531); test: Luminescence-based cell-based high throughput dose response assay to identify activators of the function of SWI/SNF related, matrix associated, actin dependent regulator of chromatin, subfamily a, member 2 (SMARCA2, BRM).; format: functional
[4] = Counterscreen for activators of the function of SWI/SNF related, matrix associated, actin dependent regulator of chromatin, subfamily a, member 2 (SMARCA2, BRM): Luminescence-based cell-based high throughput dose response assay to identify non-selective compounds using the VP16 reporter assay.; format: functional
[5] = THP-1 cell cytotoxicity, dose response, cytotoxicity control for non-replicating M. tuberculosis project (AID 489025); format: functional
[6] = HepG2 cell cytotoxicity, dose response, cytotoxicity control for non-replicating M. tuberculosis project (AID 489018); format: functional; conditions: Mycobacterium tuberculosis
[7] = Vero E6 cell cytotoxicity, dose response, cytotoxicity control for non-replicating M. tuberculosis project, secondary assay (AID 492998); format: functional, VeroE6; conditions: Vero C1008
[8] = molecular target: T1, Short transient receptor potential channel 4 (Mus musculus, UniProt Q9QUQ5); test: mouse TRPC4 channel activators, dose response, cell-based, HEK293 TRPC4/mu-opioid, Fluo-4 calcium (AID 434937); format: functional
T1 sequence (Q9QUQ5 whole entry): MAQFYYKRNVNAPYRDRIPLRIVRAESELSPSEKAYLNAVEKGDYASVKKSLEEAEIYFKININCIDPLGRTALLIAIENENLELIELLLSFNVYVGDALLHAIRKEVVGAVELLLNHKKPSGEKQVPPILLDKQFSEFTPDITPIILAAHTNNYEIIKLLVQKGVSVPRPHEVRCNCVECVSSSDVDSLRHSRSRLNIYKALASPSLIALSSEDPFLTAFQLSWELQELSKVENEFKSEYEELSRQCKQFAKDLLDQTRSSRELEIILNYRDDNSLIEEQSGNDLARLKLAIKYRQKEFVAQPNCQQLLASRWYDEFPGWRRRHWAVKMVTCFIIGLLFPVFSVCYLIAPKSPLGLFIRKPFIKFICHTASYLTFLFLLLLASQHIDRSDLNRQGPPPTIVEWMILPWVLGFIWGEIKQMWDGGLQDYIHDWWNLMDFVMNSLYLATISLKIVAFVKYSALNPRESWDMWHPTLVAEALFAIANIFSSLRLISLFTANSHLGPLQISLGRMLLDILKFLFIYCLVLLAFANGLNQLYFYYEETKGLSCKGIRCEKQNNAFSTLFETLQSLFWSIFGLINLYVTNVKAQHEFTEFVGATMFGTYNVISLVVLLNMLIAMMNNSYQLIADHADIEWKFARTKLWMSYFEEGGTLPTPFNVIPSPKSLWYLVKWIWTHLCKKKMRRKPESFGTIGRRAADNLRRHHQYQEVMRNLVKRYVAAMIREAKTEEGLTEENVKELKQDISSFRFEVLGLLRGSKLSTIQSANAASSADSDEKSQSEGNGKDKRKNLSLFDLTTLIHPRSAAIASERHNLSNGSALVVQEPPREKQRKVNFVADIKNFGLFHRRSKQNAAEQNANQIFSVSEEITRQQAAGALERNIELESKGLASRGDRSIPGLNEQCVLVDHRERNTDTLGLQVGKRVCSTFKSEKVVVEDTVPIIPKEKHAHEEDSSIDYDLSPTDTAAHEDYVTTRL

[9] = cells; format: functional
[10] = ZM109 Env clade C HIV-1 fusion inhibitors, dose response, HeLa effector, CEM target cells, luciferase, cherry-pick (AID 652058); format: functional, cell-based
[11] = P. falciparum 3D7-ScDHODH growth inhibitors, dose response, SYBR Green, dry powder samples (AID 1159570); format: functional, cell-based;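 also: parasite growth measured after 72 hours of compound exposure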
[12] = HepG2 cell cytotoxicity, dose response, cytotoxicity control, plate reader, dry powder samples (AID 1159569); format: functional, cell-based;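 also: inhibitor potency with signal falling toward the positive control level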
[13] = P. falciparum Dd2 growth inhibitors, dose response, SYBR Green, dry powder samples, set 9 (AID 1159568); format: functional, cell-based
[14] = P. falciparum Dd2 growth inhibitors, dose response, SYBR Green, cherry-picked samples (AID 1159567); format: functional, cell-based
[15] = P. falciparum Dd2 growth inhibitors, dose response, SYBR Green, dry powder samples (AID 1159566); format: functional, cell-based;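 also: potency for growth inhibition with lower SYBR green DNA signal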
[16] = P. falciparum ATP4 D1247Y mutant growth inhibitors, dose response, NITD609-resistant line, SYBR Green, dry powder (AID 1159571); format: functional, cell-based;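 also: parasites synchronized at ring stage by sorbitol before testing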
[17] = system: HEK293; test: inhibitors of LMP1-driven NF-kB reporter, dose response, cell-based, HEK293, luciferase, cherry-pick (AID 588343); format: functional; conditions: Homo sapiens
[18] = molecular target: T2, Protein skinhead-1 (Caenorhabditis elegans, UniProt P34707); format: functional
T2 sequence (P34707 whole entry): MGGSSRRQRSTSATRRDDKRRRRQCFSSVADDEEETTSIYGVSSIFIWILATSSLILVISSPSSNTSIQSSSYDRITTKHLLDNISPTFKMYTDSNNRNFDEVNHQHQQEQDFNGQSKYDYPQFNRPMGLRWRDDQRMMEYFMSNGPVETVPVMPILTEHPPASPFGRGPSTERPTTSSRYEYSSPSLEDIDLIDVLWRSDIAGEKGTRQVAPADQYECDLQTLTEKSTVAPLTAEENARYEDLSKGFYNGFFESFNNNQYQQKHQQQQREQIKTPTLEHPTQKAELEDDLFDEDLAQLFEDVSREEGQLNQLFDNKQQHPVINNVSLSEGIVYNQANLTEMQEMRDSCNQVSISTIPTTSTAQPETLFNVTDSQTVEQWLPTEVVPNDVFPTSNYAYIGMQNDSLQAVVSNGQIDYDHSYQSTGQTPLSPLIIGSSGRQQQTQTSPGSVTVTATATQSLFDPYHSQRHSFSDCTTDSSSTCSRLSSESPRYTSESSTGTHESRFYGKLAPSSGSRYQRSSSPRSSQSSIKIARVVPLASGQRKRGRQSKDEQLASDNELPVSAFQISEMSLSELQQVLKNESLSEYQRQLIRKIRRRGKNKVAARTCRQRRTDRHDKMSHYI

[19] = molecular target: Paired box protein Pax-8 (Homo sapiens, UniProt Q06710); test: inhibitors of PAX8-driven TPO luciferase reporter, dose response, RMG-I cells, cherry-pick (AID 687027); format: functional, cell-based;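 also: luciferase reporter driven by Pax8 target thyroperoxidase promoter measured by SteadyGlo luminescence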
[20] = non-specific cell cytotoxicity, dose response, cytotoxicity control for PAX8 inhibitor project, plate reader, dry powder samples (AID 743021); format: functional, cell-based
[21] = molecular target: T3, Microphthalmia-associated transcription factor (Homo sapiens, UniProt O75030); test: TRPM1 promoter luciferase signal decrease, dose response, MITF inhibitor project, cell-based, SK-MEL-5, cherry-picked, set 3 (AID 493073); format: functional
T3 sequence (O75030 whole entry): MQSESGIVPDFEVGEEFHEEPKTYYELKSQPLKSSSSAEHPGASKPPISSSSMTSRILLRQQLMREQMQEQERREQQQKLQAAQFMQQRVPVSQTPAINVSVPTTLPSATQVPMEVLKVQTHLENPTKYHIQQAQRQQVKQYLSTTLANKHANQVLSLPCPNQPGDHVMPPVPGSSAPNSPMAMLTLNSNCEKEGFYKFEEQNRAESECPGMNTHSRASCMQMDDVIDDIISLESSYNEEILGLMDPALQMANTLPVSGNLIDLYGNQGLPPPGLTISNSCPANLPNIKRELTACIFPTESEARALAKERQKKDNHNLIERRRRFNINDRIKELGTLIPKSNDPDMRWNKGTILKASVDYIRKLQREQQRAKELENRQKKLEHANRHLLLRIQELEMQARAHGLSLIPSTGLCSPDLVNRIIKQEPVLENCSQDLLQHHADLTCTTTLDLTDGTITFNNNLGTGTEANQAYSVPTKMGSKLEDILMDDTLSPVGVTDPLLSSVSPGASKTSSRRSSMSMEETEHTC

[22] = molecular target: T4, Heat shock factor protein 1 (Mus musculus, UniProt P38532); test: HSF1 potentiators in luciferase reporter cells, confirmation, cell-based, NIH3T3, luminescence, dose retest (AID 435004); format: functional;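 also: stress induced by proteasome inhibitor MG132 added 30 min after compound; luciferase reporter driven by HSF1 response element in NIH3T3 cells; actives raise luminescence as potentiators of the MG132 stress response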
T4 sequence (P38532 whole entry): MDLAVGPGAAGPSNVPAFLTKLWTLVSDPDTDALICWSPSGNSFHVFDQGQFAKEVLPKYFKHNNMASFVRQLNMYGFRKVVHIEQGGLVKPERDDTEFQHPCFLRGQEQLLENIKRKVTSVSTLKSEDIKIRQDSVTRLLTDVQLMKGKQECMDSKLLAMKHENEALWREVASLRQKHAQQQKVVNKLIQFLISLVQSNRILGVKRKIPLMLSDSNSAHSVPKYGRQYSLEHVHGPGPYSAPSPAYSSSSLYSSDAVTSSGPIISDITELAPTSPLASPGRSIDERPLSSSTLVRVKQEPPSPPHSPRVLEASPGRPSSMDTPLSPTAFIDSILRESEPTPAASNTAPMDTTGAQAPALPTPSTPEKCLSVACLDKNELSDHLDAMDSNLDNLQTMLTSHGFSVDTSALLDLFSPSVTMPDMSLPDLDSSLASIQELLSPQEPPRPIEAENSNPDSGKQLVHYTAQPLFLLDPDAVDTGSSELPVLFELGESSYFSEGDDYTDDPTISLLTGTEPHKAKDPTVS

[23] = NIH:OVCAR-3 ovarian cancer cell cytotoxicity, dose response, PAX8 inhibitor project, plate reader, dry powder samples (AID 743044); format: functional, cell-based
[24] = IGROV1 ovarian cancer cell cytotoxicity, dose response, PAX8 inhibitor project, plate reader, dry powder samples (AID 743043); format: functional, cell-based; conditions: IGROV-1
[25] = cytotoxicity in OVCAR8 ovarian cancer cells, dose response, PAX8 project, cell-based, plate reader, dry powder samples (AID 743197); format: functional; conditions: OVCAR-8
[26] = molecular target: Voltage-gated inwardly rectifying potassium channel KCNH2 (Homo sapiens, UniProt Q12809); conditions: Potency;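 also: confirmatory quantitative high-throughput screen measuring inhibition of hERG channel activity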
Chain of Voltage-gated inwardly rectifying potassium channel KCNH2 (Q12809 whole entry): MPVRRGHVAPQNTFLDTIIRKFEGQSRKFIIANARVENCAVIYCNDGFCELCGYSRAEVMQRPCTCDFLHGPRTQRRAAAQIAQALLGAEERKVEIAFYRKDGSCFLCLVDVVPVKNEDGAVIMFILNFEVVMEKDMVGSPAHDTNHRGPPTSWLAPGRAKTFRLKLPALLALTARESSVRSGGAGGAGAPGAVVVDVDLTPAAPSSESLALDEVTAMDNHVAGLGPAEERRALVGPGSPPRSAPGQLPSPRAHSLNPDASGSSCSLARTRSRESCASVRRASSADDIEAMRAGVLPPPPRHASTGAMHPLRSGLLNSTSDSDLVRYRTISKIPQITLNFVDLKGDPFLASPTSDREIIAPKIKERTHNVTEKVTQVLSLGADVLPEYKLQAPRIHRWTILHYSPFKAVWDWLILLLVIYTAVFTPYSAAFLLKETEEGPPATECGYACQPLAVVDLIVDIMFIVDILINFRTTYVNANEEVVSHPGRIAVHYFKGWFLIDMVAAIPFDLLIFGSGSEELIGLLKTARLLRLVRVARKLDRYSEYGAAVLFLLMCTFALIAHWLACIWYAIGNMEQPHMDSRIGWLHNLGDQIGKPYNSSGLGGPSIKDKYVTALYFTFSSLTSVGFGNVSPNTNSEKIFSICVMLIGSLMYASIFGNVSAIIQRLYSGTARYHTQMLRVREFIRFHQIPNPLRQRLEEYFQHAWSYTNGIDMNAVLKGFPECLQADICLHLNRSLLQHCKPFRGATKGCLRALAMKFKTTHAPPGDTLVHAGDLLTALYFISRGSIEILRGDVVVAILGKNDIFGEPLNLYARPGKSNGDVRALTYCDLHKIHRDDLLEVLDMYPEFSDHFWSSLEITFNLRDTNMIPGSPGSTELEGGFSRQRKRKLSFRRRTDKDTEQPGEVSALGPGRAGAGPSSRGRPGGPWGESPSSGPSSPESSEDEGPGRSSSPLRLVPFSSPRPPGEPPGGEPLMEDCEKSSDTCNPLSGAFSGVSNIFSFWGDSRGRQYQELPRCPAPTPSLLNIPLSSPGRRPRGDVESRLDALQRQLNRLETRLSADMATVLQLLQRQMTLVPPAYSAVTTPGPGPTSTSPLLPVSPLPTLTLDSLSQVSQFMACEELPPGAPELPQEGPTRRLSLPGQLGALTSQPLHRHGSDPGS

Chain of Kallikrein-7 (P49862 whole entry): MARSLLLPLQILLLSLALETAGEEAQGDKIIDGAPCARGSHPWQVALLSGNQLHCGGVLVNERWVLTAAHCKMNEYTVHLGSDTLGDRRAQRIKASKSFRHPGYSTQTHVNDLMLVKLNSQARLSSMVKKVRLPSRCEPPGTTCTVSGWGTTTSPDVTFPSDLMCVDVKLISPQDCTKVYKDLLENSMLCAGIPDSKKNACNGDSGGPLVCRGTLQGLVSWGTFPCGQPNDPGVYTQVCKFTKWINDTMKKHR
Chain of Paired box protein Pax-8 (Q06710 whole entry): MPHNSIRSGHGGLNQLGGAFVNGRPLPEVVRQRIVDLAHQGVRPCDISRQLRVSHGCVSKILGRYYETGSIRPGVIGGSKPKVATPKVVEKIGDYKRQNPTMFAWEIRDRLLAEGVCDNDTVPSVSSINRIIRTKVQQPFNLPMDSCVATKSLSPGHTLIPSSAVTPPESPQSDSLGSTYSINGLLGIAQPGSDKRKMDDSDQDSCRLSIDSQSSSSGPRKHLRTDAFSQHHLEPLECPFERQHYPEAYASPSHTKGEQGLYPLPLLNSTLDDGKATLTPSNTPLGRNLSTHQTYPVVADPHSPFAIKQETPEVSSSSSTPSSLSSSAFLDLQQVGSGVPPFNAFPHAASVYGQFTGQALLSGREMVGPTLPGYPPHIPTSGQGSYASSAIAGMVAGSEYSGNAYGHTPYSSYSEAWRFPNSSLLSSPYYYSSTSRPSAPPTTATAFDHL
Chain of SWI/SNF-related matrix-associated actin-dependent regulator of chromatin subfamily A member 2 (P51531 whole entry): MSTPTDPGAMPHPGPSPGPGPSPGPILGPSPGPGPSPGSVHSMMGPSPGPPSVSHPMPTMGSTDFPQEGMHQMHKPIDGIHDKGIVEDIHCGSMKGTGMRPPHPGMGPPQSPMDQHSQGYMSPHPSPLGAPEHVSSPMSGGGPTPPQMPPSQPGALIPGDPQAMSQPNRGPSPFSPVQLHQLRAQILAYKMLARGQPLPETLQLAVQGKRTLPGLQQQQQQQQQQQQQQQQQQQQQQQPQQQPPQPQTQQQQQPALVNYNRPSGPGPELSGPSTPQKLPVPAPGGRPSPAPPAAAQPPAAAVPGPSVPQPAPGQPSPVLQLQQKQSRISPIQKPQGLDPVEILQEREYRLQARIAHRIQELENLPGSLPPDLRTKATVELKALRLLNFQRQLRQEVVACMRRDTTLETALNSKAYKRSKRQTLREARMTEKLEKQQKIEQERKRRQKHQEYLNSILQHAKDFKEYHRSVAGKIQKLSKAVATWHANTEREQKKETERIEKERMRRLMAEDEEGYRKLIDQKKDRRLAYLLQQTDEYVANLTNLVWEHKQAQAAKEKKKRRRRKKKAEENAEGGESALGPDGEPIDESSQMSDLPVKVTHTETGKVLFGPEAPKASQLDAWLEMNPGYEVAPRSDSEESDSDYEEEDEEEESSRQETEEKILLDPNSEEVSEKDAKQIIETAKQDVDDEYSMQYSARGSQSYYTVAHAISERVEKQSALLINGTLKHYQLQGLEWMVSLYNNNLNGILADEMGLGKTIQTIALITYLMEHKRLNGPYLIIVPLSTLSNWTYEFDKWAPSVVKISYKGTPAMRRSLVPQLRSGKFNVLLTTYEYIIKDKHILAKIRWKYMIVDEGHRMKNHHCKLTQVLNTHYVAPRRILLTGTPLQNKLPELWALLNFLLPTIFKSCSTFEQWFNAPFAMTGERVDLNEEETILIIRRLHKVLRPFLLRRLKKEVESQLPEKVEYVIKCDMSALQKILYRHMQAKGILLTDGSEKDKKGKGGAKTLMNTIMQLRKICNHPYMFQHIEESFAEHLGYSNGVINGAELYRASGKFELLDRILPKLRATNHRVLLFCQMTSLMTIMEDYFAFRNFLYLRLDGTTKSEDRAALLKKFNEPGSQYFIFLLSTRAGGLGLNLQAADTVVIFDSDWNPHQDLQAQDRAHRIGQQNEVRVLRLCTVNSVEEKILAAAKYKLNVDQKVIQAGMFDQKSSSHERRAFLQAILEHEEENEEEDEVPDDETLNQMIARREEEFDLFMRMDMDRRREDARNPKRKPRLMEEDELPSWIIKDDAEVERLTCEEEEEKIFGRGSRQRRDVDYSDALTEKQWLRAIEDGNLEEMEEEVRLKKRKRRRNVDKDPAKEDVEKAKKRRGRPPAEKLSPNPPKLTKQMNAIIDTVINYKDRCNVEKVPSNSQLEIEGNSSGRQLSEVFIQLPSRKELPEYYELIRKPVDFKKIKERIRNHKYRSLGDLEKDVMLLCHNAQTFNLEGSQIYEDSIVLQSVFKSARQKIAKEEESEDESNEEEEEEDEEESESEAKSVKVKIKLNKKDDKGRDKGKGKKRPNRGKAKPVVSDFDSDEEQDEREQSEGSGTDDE

Oc1nc(-c2ccccc2Cl)c2cc(F)ccc2n1
EC50 [1]: > 69.5 µM (inactive)

Cc1ccc(O)c(NC(=O)c2cc(-c3ccccc3)on2)c1
IC50 [2]: > 80 µM (inactive)

Nc1c(Cl)cc(Cl)cc1C(=O)OCC(=O)N1CCCC1
EC50 [1]: > 69.5 µM (inactive)

Cc1n[nH]c(SCC(=O)N2CCc3ccccc32)n1
EC50 [3]: > 91 µM (inactive)
EC50 [4]: > 91 µM (inactive)

Cc1ccc(-n2cc(CNCCc3nc(C)c[nH]3)c(-c3ccc(F)cc3)n2)cc1
CC50 [5]: 24.1 µM (active)
CC50 [6]: 16.7 µM (active)
CC50 [7]: 17.4 µM (active)
EC50 [8]: 6.68 µM (active)
IC50 [9]: 11.5 µM (active)

O=C(Nc1ccc(F)cc1)Nc1ccc2c(c1)[C@@H]1C[C@H](CC(=O)N3CCCCC3)O[C@@H](CO)[C@@H]1O2
AC50 [10]: 35 µM (active)

CC(C)NC(=O)N1[C@H](C#N)[C@H](c2ccc(C#CC3CCCCC3)cc2)[C@@H]1CO
AC50 [11]: 1.58 µM (active)
AC50 [12]: 28.6 µM (active)
AC50 [13]: 0.148 µM (active)
AC50 [14]: 0.99 µM (active)
AC50 [15]: 0.495 µM (active)
AC50 [16]: 0.676 µM (active)

O=c1cc(-c2ccccc2)oc2ccc3ccccc3c12 [BETA-NAPHTHOFLAVONE]
AC50 [17]: 0.646 µM (active)
IC50 [18]: > 100 µM (inactive)
AC50 [19]: 5.9 µM (active)
AC50 [20]: 29.2 µM (active)

CCOC(=O)N1CCC2(CC1)NC(=O)c1ccccc1N2
EC50 [1]: > 69.5 µM (inactive)

COc1ccc(-c2ccc3c(c2)[C@H]2[C@H](CCN2C(=O)C2CCCC2)[C@H](CO)N3C)cc1
AC50 [11]: 2.27 µM (active)
AC50 [12]: 16.1 µM (active)
AC50 [14]: 1.87 µM (active)
AC50 [15]: 1.42 µM (active)
AC50 [16]: 1.97 µM (active)

Cc1onc(-c2ccccc2)c1C(=O)N/N=C/c1ccc([N+](=O)[O-])s1
CC50 [5]: 13.5 µM (active)
CC50 [6]: 18.8 µM (active)
CC50 [7]: 11.4 µM (active)
AC50 [21]: 5.35 µM (active)
IC50 [9]: 14.9 µM (active)

COc1ccc(C(CCNCc2ccccc2)c2ccc(F)cc2)cc1 (stereo not drawn)
CC50 [5]: 11.7 µM (active)
CC50 [6]: 14.6 µM (active)
CC50 [7]: 18 µM (active)
EC50 [22]: > 260 µM (inactive)
IC50 [9]: 18.7 µM (active)

Clc1ccc(CO/N=C2\CCCc3nonc32)cc1
EC50 [3]: > 91.2 µM (inactive)
EC50 [4]: > 91.2 µM (inactive)

Cc1c(C2(O)CCCCC2)[nH]c2cnccc12
EC50 [1]: > 69.5 µM (inactive)

C[C@H]1CN([C@@H](C)CO)C(=O)c2cc(/C=C/c3ccccc3)cnc2O[C@@H]1CN(C)C(=O)C1CCCCC1
AC50 [11]: 0.905 µM (active)
AC50 [12]: > 100 µM (inactive)
AC50 [13]: 0.082 µM (active)
AC50 [14]: 0.54 µM (active)
AC50 [15]: 0.291 µM (active)
AC50 [16]: 0.464 µM (active)

Cc1ccc(S(=O)(=O)Nc2ccc3c(c2)C(=O)N([C@@H](C)CO)C[C@@H](C)[C@H](CN(C)Cc2ccc(C(F)(F)F)cc2)OCCCC[C@@H](C)O3)cc1
AC50 [19]: 8.98 µM (active)
AC50 [23]: 17.9 µM (active)
AC50 [24]: 36.9 µM (active)
AC50 [20]: 43 µM (active)
AC50 [25]: > 70 µM (inactive)

COc1ccc(NC(=O)/C=C/c2ccc(Cl)cc2)cc1
AC50 [26]: 25.1 µM (inconclusive)

CN(C)CCC(c1ccccc1)c1ccccn1 (stereo not drawn) [PHENIRAMINE MALEATE]
AC50 [26]: 15.8 µM (inconclusive)
